From patent publication US10905660B2, “Microparticles” (NovaBiotics Limited, priority 2016, dated 2021)

Key:
Type in all cases: in vivo
[1] = system: Pseudomonas aeruginosa ATCC 27853; experiment: Mouse IN neutropenic lung burden model, Lynovex/lactose study; details: 24 h post-infection
Procedure: (§1) Assessment of Efficacy of Lynovex (Cysteamine) Prep in a Mouse IN Neutropenic model of Pseudomonas aeruginosa ATCC 27853 (Lung Burden Model)
(§2) Animals were immunosuppressed/pre-conditioned with either 200 mg/kg or 150 mg/kg cyclophosphamide. Lynovex, chemical name cysteamine, and vehicle were either prepared either as Lynovex and lactose vehicle, or Lynovex and mannitol-based vehicle (both provided by Upperton (Upperton product)). These were prepared for treatment and vehicle-control alone respectively, and in combination. Tobramycin was prepared as an inhalation formulation in lactose. All treatments were administered using a Penn Century device. Phosphate buffered saline (PBS) and Pseudomonas selective agar were required for bacterial tissue burden.
(§3) Male CD1 mice (n=6 for treatment groups, plus five in pre-treatment group, totalling 35 mice) were used in this study. On day −4, the mice were immunosuppressed/pre-conditioned with 200 mg/kg cyclophosphamide intraperitoneally; and with 150 mg/kg cyclophosphamide intraperitoneally on day −1. An infection was established with P. aeruginosa ATCC27853, with an inoculum of 5×10^6 cfu/ml, administered intranasally in a volume of 40 μl following anaesthetisation with a ketamine/xylazine anaesthetic cocktail for 15 minutes, for the Lynovex prepared in lactose study, and an inoculum of 4×10^6 for the Upperton Lynovex product.
All treatments were administered intratracheally using a Penn Century device.
Lynovex (cysteamine) was administered at 1.5 mg alone, and in combination with lactose at the following concentrations: Lynovex 0.75 mg+2.25 mg lactose powder, Lynovex 1.5 mg+1.5 mg lactose powder, Lynovex 2.25 mg+0.75 mg, along with a vehicle only control of 3 mg lactose. In addition, Tobramycin at 188 μg/dose was administered, as an inhaled formulation which was mixed with lactose to aid measurement. The treatments were administered approximately 5 minutes after infection.
(§4) The lung tissue burden of each animal, at the clinical end point of 24 h post-infection, was determined. The lungs were homogenised in 2 ml PBS, serially diluted in PBS and plated onto Pseudomonas selective agar before quantification after 24-48 h at 37° C.

[2] = system: Pseudomonas aeruginosa ATCC 27853; experiment: Mouse IN neutropenic lung burden model, Lynovex Upperton product (mannitol-based) study; details: 0.188 mg inhalation formulation, intratracheal, 24 h post-infection; highly variable burdens
Procedure: as §1, §2
Male CD1 mice (n=6 for treatment groups, plus five in pre-treatment group, totalling 35 mice) were used in this study. On day −4, the mice were immunosuppressed/pre-conditioned with 200 mg/kg cyclophosphamide intraperitoneally; and with 150 mg/kg cyclophosphamide intraperitoneally on day −1. […]
as §4

[3] = Mouse weights before and after infection; details: P. aeruginosa infected neutropenic CD1 mice, Upperton product study (FIG. 6)
Procedure: as §3
In a different study, Lynovex was administered at the following doses: 3 mg 5% Lynovex and 3 mg 10% Lynovex. Lynovex in combination with Tobramycin as follows: 3 mg 5% Lynovex+Tobramycin 0.188 mg in 1.5 mg vehicle, 3 mg 10% Lynovex+Tobramycin 0.188 mg in 1.5 mg Vehicle (mannitol-based, provided by Upperton) and a Tobramycin only control (0.188 mg/dose in lactose vehicle). The treatments were administered once approximately 10 minutes after infection.
Additionally, mouse weights were recorded before and after infection. Mice treated with vehicle, Lynovex monotherapy or Tobramycin monotherapy lost weight following infection. […]

Compound | mice clearing the infection to below the detection limit ([1]; 1.5 mg intratracheal) | lung burden compared to vehicle ([1]; 1.5 mg intratracheal, P=0.0072) | mice clearing the infection to below the detection limit ([1]; 2.25 mg intratracheal) | lung burden compared to vehicle ([1]; 2.25 mg intratracheal, P=0.0349) | animals that cleared the infection to below the limit of detection ([1]; 0.188 mg inhalation formulation, intratracheal) | lung burden compared with vehicle-treated mice ([1]; 0.188 mg inhalation formulation, intratracheal, CD1 mice, P=0.0097 Kruskal Wallis test) | average reduction in lung burden compared with vehicle-treated mice [2] [log10 cfu/g] | mouse weight following infection [3]
NCCS [Lynovex, cysteamine] | 5/6 | reduced the lung burden | 4/6 | reduced the lung burden |  |  |  | 
NC[C@H]1O[C@H](O[C@H]2[C@H](O)[C@@H](O[C@H]3O[C@H](CO)[C@@H](O)[C@H](N)[C@H]3O)[C@H](N)C[C@@H]2N)[C@H](N)C[C@@H]1O [Tobramycin] |  |  |  |  | 5/6 | statistically significant reduction in lung burden | 1.61 | lost weight
